Measurements published in the supplement of paper PMC12494721.

Tests used:
Conditions in all cases: incubation time: 27 h, anaerobic, 37 °C
[1] = test system: Clostridium sporogenes DSM 1664; assay: growth (OD595) fold change vs plate DMSO controls (fold change (ratio)); higher = more growth
Escherichia coli IAI1 [2] = assay: as above
[3] = test system: Klebsiella aerogenes DSM 30053; assay: as above
[4] = test system: Ruminococcus gnavus DSM 108212; assay: as above
[5] = test system: Klebsiella aerogenes DSM 30053; assay: fold change of Histamine concentration vs plate DMSO controls (fold change (ratio)); higher = more amine produced
Description: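 Dose-response follow-up: bacteria (E. coli IAI1, K. aerogenes DSM 30053, C. sporogenes DSM 1664, R. gnavus DSM 108212) were grown anaerobically in mGAM at 37 °C for 27 h with compound at 0.6125-20 µM. Amines were measured in the whole culture by targeted LC-MS/MS. Metabolite fold change and OD595 fold change are relative to plate DMSO controls; n=2 biological replicates. OD fold changes are not clipped, so slightly negative values mean no growth.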

Escherichia coli IAI1 [6] = assay: fold change of Putrescine concentration vs plate DMSO controls (fold change (ratio)); higher = more amine produced
[7] = test system: Klebsiella aerogenes DSM 30053; assay: as above
[8] = test system: Clostridium sporogenes DSM 1664; assay: fold change of Tryptamine concentration vs plate DMSO controls (fold change (ratio)); higher = more amine produced
[9] = test system: Ruminococcus gnavus DSM 108212; assay: as above
Escherichia coli IAI1 [10] = assay: fold change of Cadaverine concentration vs plate DMSO controls (fold change (ratio)); higher = more amine produced
[11] = test system: Klebsiella aerogenes DSM 30053; assay: as above
[12] = test system: Ruminococcus gnavus DSM 108212; assay: fold change of 2-Phenylethylamine concentration vs plate DMSO controls (fold change (ratio)); higher = more amine produced

CCn1cc(C(=O)O)c(=O)c2cc(F)c(N3CCNCC3)nc21 [Enoxacin]
Conditions	fold change of 2-Phenylethylamine concentration	fold change of Cadaverine concentration	fold change of Histamine concentration	fold change of Putrescine concentration	fold change of Tryptamine concentration	growth
Escherichia coli IAI1 [2], 0.6125 µM	–	–	–	–	–	0.893
Escherichia coli IAI1 [2], 1.25 µM	–	–	–	–	–	-0.0647
Escherichia coli IAI1 [2], 2.5 µM	–	–	–	–	–	-0.041
Escherichia coli IAI1 [2], 5 µM	–	–	–	–	–	0.063
Escherichia coli IAI1 [2], 10 µM	–	–	–	–	–	0.0275
Escherichia coli IAI1 [2], 20 µM	–	–	–	–	–	-0.0283
Escherichia coli IAI1 [6], 0.6125 µM	–	–	–	0.829	–	–
Escherichia coli IAI1 [6], 1.25 µM	–	–	–	0.362	–	–
Escherichia coli IAI1 [6], 2.5 µM	–	–	–	0.557	–	–
Escherichia coli IAI1 [6], 5 µM	–	–	–	0.832	–	–
Escherichia coli IAI1 [6], 10 µM	–	–	–	0.916	–	–
Escherichia coli IAI1 [6], 20 µM	–	–	–	0.993	–	–
Escherichia coli IAI1 [10], 0.6125 µM	–	1.43	–	–	–	–
Escherichia coli IAI1 [10], 1.25 µM	–	1.6	–	–	–	–
Escherichia coli IAI1 [10], 2.5 µM	–	1.14	–	–	–	–
Escherichia coli IAI1 [10], 5 µM	–	0.433	–	–	–	–
Escherichia coli IAI1 [10], 10 µM	–	0.292	–	–	–	–
Escherichia coli IAI1 [10], 20 µM	–	0.278	–	–	–	–
[1], 0.6125 µM	–	–	–	–	–	1.15
[1], 1.25 µM	–	–	–	–	–	1.19
[1], 2.5 µM	–	–	–	–	–	1.06
[1], 5 µM	–	–	–	–	–	0.904
[1], 10 µM	–	–	–	–	–	0.245
[1], 20 µM	–	–	–	–	–	0.00474
[3], 0.6125 µM	–	–	–	–	–	0.845
[3], 1.25 µM	–	–	–	–	–	1.25
[3], 2.5 µM	–	–	–	–	–	0.554
[3], 5 µM	–	–	–	–	–	0.373
[3], 10 µM	–	–	–	–	–	0.469
[3], 20 µM	–	–	–	–	–	0.328
[4], 0.6125 µM	–	–	–	–	–	0.917
[4], 1.25 µM	–	–	–	–	–	1.07
[4], 2.5 µM	–	–	–	–	–	0.725
[4], 5 µM	–	–	–	–	–	0.638
[4], 10 µM	–	–	–	–	–	0.638
[4], 20 µM	–	–	–	–	–	0.488
[5], 0.6125 µM	–	–	0.971	–	–	–
[5], 1.25 µM	–	–	1.17	–	–	–
[5], 2.5 µM	–	–	1.18	–	–	–
[5], 5 µM	–	–	0.54	–	–	–
[5], 10 µM	–	–	0.252	–	–	–
[5], 20 µM	–	–	0.329	–	–	–
[7], 0.6125 µM	–	–	–	1.03	–	–
[7], 1.25 µM	–	–	–	1.06	–	–
[7], 2.5 µM	–	–	–	1.2	–	–
[7], 5 µM	–	–	–	1.27	–	–
[7], 10 µM	–	–	–	1.3	–	–
[7], 20 µM	–	–	–	1.34	–	–
[8], 0.6125 µM	–	–	–	–	0.988	–
[8], 1.25 µM	–	–	–	–	0.965	–
[8], 2.5 µM	–	–	–	–	0.972	–
[8], 5 µM	–	–	–	–	0.712	–
[8], 10 µM	–	–	–	–	0.133	–
[8], 20 µM	–	–	–	–	0.0376	–
[9], 0.6125 µM	–	–	–	–	0.907	–
[9], 1.25 µM	–	–	–	–	1.03	–
[9], 2.5 µM	–	–	–	–	1.98	–
[9], 5 µM	–	–	–	–	1.5	–
[9], 10 µM	–	–	–	–	1.3	–
[9], 20 µM	–	–	–	–	1.47	–
[11], 0.6125 µM	–	0.977	–	–	–	–
[11], 1.25 µM	–	0.984	–	–	–	–
[11], 2.5 µM	–	0.985	–	–	–	–
[11], 5 µM	–	1.01	–	–	–	–
[11], 10 µM	–	0.999	–	–	–	–
[11], 20 µM	–	0.994	–	–	–	–
[12], 0.6125 µM	0.788	–	–	–	–	–
[12], 1.25 µM	1.01	–	–	–	–	–
[12], 2.5 µM	1.5	–	–	–	–	–
[12], 5 µM	1.16	–	–	–	–	–
[12], 10 µM	1.04	–	–	–	–	–
[12], 20 µM	1.15	–	–	–	–	–

C[C@@H](O)[C@H]1C(=O)N2C(C(=O)O)=C(S[C@@H]3CN[C@H](C(=O)N(C)C)C3)[C@H](C)[C@H]12 [Meropenem]
Conditions	fold change of 2-Phenylethylamine concentration, [12]	fold change of Cadaverine concentration, [11]	fold change of Histamine concentration, [5]	fold change of Putrescine concentration, [7]	fold change of Tryptamine concentration, [9]	growth, [3]	growth, [4]
0.6125 µM	0.912	0.982	0.953	1	1.11	0.844	1.13
1.25 µM	0.801	1.01	0.643	1.06	0.93	0.992	1.07
2.5 µM	0.578	1	0.612	0.976	0.801	0.894	1.63
5 µM	0.185	1.06	0.462	1.01	0.259	1.4	1.88
10 µM	0.162	1.13	0.289	0.879	0.217	0.935	0.41
20 µM	0.162	1.18	0.227	0.667	0.2	0.363	0.365

CN1CCN(c2c(F)cc3c(=O)c(C(=O)O)cn4c3c2SCC4)CC1 [Rufloxacin]
Conditions	fold change of 2-Phenylethylamine concentration, [12]	fold change of Cadaverine concentration, [11]	fold change of Histamine concentration, [5]	fold change of Putrescine concentration, [7]	fold change of Tryptamine concentration, [8]	fold change of Tryptamine concentration, [9]	growth, [1]	growth, [3]	growth, [4]
0.6125 µM	0.871	0.967	1.1	0.99	1	0.989	1.09	0.848	1.07
1.25 µM	1.12	0.979	1.03	0.992	0.994	1.18	0.879	0.939	0.974
2.5 µM	2.04	0.981	1.96	1.05	0.972	2.02	0.898	0.636	0.91
5 µM	1.33	1.03	0.834	1.12	0.931	1.51	1.09	0.425	0.61
10 µM	1.22	1.09	0.211	1.19	0.674	1.24	0.742	0.466	0.593
20 µM	1.18	1.12	0.22	1.19	0.0448	1.16	0.0686	0.37	0.484
